Test results from publication PMC4359714 (Naunyn-Schmiedeberg's Archives of Pharmacology, 2015).

Key:
SNL rats = experiment: SNL-induced tactile allodynia (von Frey, up-down method); type: in vivo, rat; conditions: 100 mg/kg p.o.; p > 0.05 vs vehicle (4.4 ± 1.2 g)
Procedure: SNL surgery was performed using aseptic surgical techniques and a stereomicroscope (Kim and Chung [1992]). Spinal nerve injury was caused by ligating the left L5 and L6 spinal nerves, with special care to avoid damage to the L4 spinal nerve or surrounding area. More specifically, under gaseous anesthesia with a mixture of O2 and isoflurane (3 % for induction and 2 % for maintenance), skin was excised and the longissimus lumborum muscle, part of articular processes (L4-S1), and the fascia above L6 spinal nerve were carefully removed. […]
Behavioral testing Two weeks post surgery, mechanical sensitivity was measured by determining the median 50 % foot withdrawal threshold for von Frey filaments using the up-down method (Chaplan et al. [1994]). […] To avoid possible reflex responses, only abrupt withdrawal of the foot accompanied by pain indicative behaviors (namely paw flinching, shaking, or licking for more than 2 s) was recorded as a response. […]
In vivo IC50 and IC90 estimates using WDS model data were determined by fitting a sigmoidal dose-response curve to individual animal number of WDS versus resulting plasma concentration. Behavioral and electrophysiological data are expressed as mean ± standard error of the mean (S.E.M.). Results were analyzed using one-way analysis of variance (ANOVA) with Dunnett’s multiple-comparisons post-hoc test for significance relative to vehicle. […]

[1] = test system: cold pressor effect in rats; experiment: Cold-induced increase in blood pressure, cold pressor test (CPT); type: in vivo, rat; conditions: 10 mg/kg p.o.
Procedure: 2 h prior to anesthesia with sodium pentobarbital at 60 mg/kg i.p. Blood pressure was recorded for 5 min for “pre-cold baseline” and an additional 5 min during immersion of the paws and ventral half of the body in ice water. Mean blood pressure (MBP) was derived electronically using Digi-Med Blood Pressure Analyzer (Model 400). Plasma was collected through the artery catheter immediately after the cold pressor test for pharmacokinetic analysis. Percent increase from baseline and percent inhibition attributed to treatment with test compound were then determined using the following formula: (1) percent increase from baseline (mmHg) cold pressor effect = [(cold-evoked change in MBP)/MBP pre-cold] × 100; (2) percent inhibition of cold pressor effect = [1 − (cold-evoked change in MBP post-test compound/cold-evoked change in MBP post-vehicle)] × 100.

[2] = Pharmacokinetics in plasma and brain, male Sprague-Dawley rats; type: in vivo; conditions: male Sprague-Dawley rat
Procedure: Plasma pharmacokinetics of each compound in male Sprague-Dawley rats (n = 3 animals per study) were determined after intravenous dosing at 2 mg/kg in 100 % dimethylsulfoxide (DMSO) or after administration of 5 mg/kg by oral gavage with test article formulated in 5 % Tween 80 in OraPlus®. At designated time points, blood was collected via the femoral artery and processed for plasma by centrifugation. Plasma was then transferred into a 96-well container and stored in a freezer maintained at −70 °C. Similar bioanalytical methods were used to determine plasma and brain exposure in animals tested in pharmacodynamic and pain models. Brain samples were homogenized with a 4:1 ratio of water (mL) for every gram of brain tissue. […] Calibration standards were prepared from a 1 mg/mL stock solution of each compound in DMSO with a serial dilution into a blank matrix (plasma or brain homogenate). Liquid chromatography with tandem mass spectrometry was used for the quantitation of each compound in rat plasma and brain. Non-compartmental pharmacokinetic analysis of plasma concentrations was conducted using WinNonlin Enterprise v.5.1.1 (Pharsight Corporation, Mountain View, CA). Brain uptake was calculated as a ratio of concentration in whole brain tissue to that in plasma taken from the same animal at approximately the same time.

[3] = test system: TRPM8 on cutaneous nerve terminals (C fibers); experiment: Skin-nerve preparation, menthol-evoked activation of C fibers; design: species or system mouse; conditions: 10 μM; 300 μM menthol; n = 22; p = 0.005
From the text: Adult C57BL/6 mice were obtained from Jackson Laboratories and used for ex vivo skin-nerve preparations. Mice were allowed to acclimate to the animal facility at the Medical College of Wisconsin, an Association for the Assessment and Accreditation of Laboratory Animal […] (AALAC)-accredited facility, for approximately 1 week following shipment. Animals were housed with up to four other cagemates and had ad libitum access to food pellets and hyper-chlorinated water. Mice were housed on a 14:10 h light-dark cycle in cages containing aspen bedding and paper nesting material. Room temperatures averaged 21 °C. Prior to use, animals were briefly anesthetized with inhaled isoflurane and then sacrificed via cervical dislocation.
The mouse saphenous skin-nerve in vitro preparation (Koltzenburg et al. [1997]; Stucky et al. [1999]) was used for electrophysiological recordings of cutaneous terminals of primary afferent fibers in situ. […] Once a unit with a signal to noise ratio >2 was identified, the mechanical threshold was determined using calibrated von Frey filaments (range, 0.44–147.0 mN). […]
Wave forms of action potentials evoked by mechanical stimuli were saved on an oscilloscope for comparison of shape and profile. […] Action potentials were discriminated and counted off-line using a spike histogram software extension. […] All data was also analyzed in a blinded manner.

Oral bioavailability ([2]; 5 mg/kg oral gavage): 47%
clearance ([2]; plasma, iv, i.v. 2 mg/kg): 7.83 mL/min/kg
bioavailability ([2]; plasma, 5 mg/kg oral gavage): > 40%
Compound: C[C@H](NC(=O)N1CCc2cccnc2[C@H]1c1ccc(C(F)(F)F)cc1)C(F)(F)F [AMG2850, (R)-8-(4-(trifluoromethyl)phenyl)-N-((S)-1,1,1-trifluoropropan-2-yl)-5,6-dihydro-1,7-naphthyridine-7(8H)-carboxamide]
tactile threshold (von Frey), SNL model (SNL rats): 5.8 ± 1.3 g
effect on cold pressor response [1]: fully blocked
effect on menthol-evoked firing of C fibers [3]: completely inhibited all menthol-evoked firing
